Patent publication US20150174144A1, “TETRACYCLINE COMPOUNDS FOR TREATING NEURODEGENERATIVE DISORDERS” (PARATEK PHARMACEUTICALS, INC., priority 2012, published 2015)

Legend:
[1] = 14-day acute toxicity and 28-day toxicology study in rats; format: in vivo
Procedure: The compound was also shown to be negative in a GLP phototoxicity assay. […] Both 14-day acute toxicity and 28-day toxicology study were performed in rats with Compound 1 along with minocycline for comparison. Animals were administered daily oral doses from 15 to 150 mg/kg for up to 4 weeks followed by a recovery period.

[2] = Preliminary embryofetal DRF study in rats; format: in vivo; settings: high dose of 250 mg/kg
[3] = Peroxynitrite-carbonate radical scavenging assay (DHR probe)
Procedure: Inflammatory conditions are characterized by increasing concentrations of reactive oxygen species. In this study, the ability of Compound 1 to specifically scavenge peroxynitrite-carbonate radicals was determined.
To the first column of a 96-well PCR plate (0.2 mL volume) was added 160 μL of TCWS. One well of the first column would equal one IC50 determination. Typically, test compounds were assayed in duplicate, i.e. two wells of column 1 were filled with each TCWS. To the remaining wells in columns 2-11 was added 80 μL of DWS. Using a multichannel pipettor, column 1 was serially diluted in 2-fold dilutions by removing 80 μL from column 1 and transferring with mixing to column 2. Column 2 was then diluted to column 3 and so on until column 11 where 80 μL of the diluted mixture was removed and discarded. At least 2 wells of row 12 were designated as the 0 test compound control to which 80 μL of DWS was added. One well of row 12 per test compound was designated as the background control to which 80 μL of the TCWS was added.
The plate was covered and incubated for 5 minutes at 37° C. upon which the reaction was initiated by addition of 20 μL of Sin-1 to columns 1-11 using a multichannel pipettor with mixing. The reaction was initiated similarly to the 0 test compound wells of column 12. To the background control wells was added 20 μL of PC buffer. The plate was incubated at 37° C. for 8 minutes (the reaction is linear for 10 minutes) and quenched by addition of 50 μL of AA to all wells with mixing. The plate was placed on ice for 5 minutes. Quenched assay mixtures were stable at room temperature for at least 24 hours.
Each reaction mixture (20 μL) was analyzed for rhodamine 123 product by HPLC using a Phenomenex Luna C18(2) column, 3 um, 4.6×50 mm using an A buffer of water+0.1% TFA and a B buffer of acetonitrile+0.1% TFA and the following gradient method: […]
The absorbance at 280 nm was also recorded to ensure no co-elution of test compound peaks.
Initial examination of the background control samples at the highest test compound concentration were performed to ensure no co-elution of test compound peaks with the product rhodamine 123 at 4 minutes. If co-elution was observed, the compound was not tested until an appropriate HPLC method was developed to separate the product and test compound peaks. The rhodamine 123 AUC was then determined for each test compound concentration and the percent inhibition of rhodamine 123 fluorescence was then determined by the following equation:
% Inhibition=[(AUCo−AUCx)/AUCo]*100
Where AUCo is the AUC of the rhodamine 123 peak at 0 test compound concentration and AUCX is the AUC of the rhodamine 123 peak at each test compound concentration=x.
The standard error of the curve fit for the IC50 was also determined along with the Hill slope. The IC50 determined for uric acid was divided by the IC50 determined for each test compound to generate Uric Acid Equivalents, a measure of the peroxynitrite-carbonate radical scavenging ability relative to uric acid.
Uric Acid Equivalents=[…]

[4] = system: Fmr1 KO mice and wild-type littermates; assay: Open Field test, mouse model of Fragile X Syndrome; format: in vivo; settings: 10 mg/kg/d i.p. osmotic pump, 1 week
Procedure: (§1) The purpose of this study was to test Compound 1 for treating Fragile X Syndrome. This study utilized Fmr1 KO mice, an animal model of Fragile X Syndrome.
(§2) The Fmr1 KO mice (C57BL/6 background) were kindly provided the FRAXA Foundation. Mice were housed in groups of the same genotype in a temperature and humidity controlled room with a 12-h light-dark cycle (lights on 7 am to 7 pm). Testing was conducted during the light phase. Food and water were available ad libitum. Testing was conducted on Fmr1 KO mice and their wild-type littermates. They were housed in commercial plastic cages purchased in the UK. Experiments were conducted in line with the requirements of the UK Animals (Scientific Procedures) Act, 1986.
(§3) The dosing protocol used is shown below. Mice were dosed at 6-7 weeks by intraperitoneal (i.p.) infusion by osmotic pump (0.5 μl/hour) for 1 week. The solution of 0.9% saline was used as a vehicle, and 10 mice were dosed per each group.

bacterial ribosome = assay: Transcription/translation (TnT) in vitro assay of bacterial protein synthesis; format: biochemical
Procedure: The antibacterial activity of Compound 1 was evaluated against comparator compounds minocycline and doxycycline. Test compounds are considered to have antibacterial activity if they inhibit bacterial growth at test concentrations below 4 μM. […] Further, mechanistic evidence of their antibacterial activity was evaluated using the transcription/translation (TnT) in vitro assay which directly measures the bacterial cellular efficiency of protein synthesis with and without test compounds present.

Metabolism = format: in vitro ADME; settings: pre-clinical ADME studies
MOG peptide-induced EAE = MOG peptide-induced EAE in mice; format: in vivo, C57BL/6 mouse; settings: mouse, i.p. daily from day 10
Text: The inhibitory activity of Compound 1 was characterized in both mouse and rat models of EAE. Mice were immunized s.c. with myelin oligodendrocyte glycoprotein (MOG) peptide 35-55 in CFA and later injected i.v. with Pertussis toxin. Mice were randomized at day 10 and given compound i.p. Compounds were subsequently administered daily and the animals assessed for clinical score. Mice were scored as follows: 0=no disease; 1=limp tail; 2=paralysis of one or both hind limbs; 4=paralysis of both hind- and forelimbs. […] Rats were dosed daily i.p. with compound starting day 9. Rats were scored daily and cumulative scores were determined by adding the average daily scores over the experimental period. […] The average daily scores+/−SEM and the cumulative average scores are shown. Cumulative average scores were determined by adding the average daily scores over the experimental period.

hERG/ion channel = hERG/ion channel (Homo sapiens, UniProt Q12809); assay: hERG/ion channel assays; settings: pre-clinical safety studies
Fmr1 KO2 mice = assay: Marble burying test, mouse model of Fragile X Syndrome; format: in vivo; settings: 10 mg/kg/d
Procedure: as §1, §2, §3

Genotoxicity = settings: pre-clinical safety studies
[5] = Cardiovascular safety study in monkeys; format: in vivo

hERG/ion channel, sequence (Q12809 whole entry): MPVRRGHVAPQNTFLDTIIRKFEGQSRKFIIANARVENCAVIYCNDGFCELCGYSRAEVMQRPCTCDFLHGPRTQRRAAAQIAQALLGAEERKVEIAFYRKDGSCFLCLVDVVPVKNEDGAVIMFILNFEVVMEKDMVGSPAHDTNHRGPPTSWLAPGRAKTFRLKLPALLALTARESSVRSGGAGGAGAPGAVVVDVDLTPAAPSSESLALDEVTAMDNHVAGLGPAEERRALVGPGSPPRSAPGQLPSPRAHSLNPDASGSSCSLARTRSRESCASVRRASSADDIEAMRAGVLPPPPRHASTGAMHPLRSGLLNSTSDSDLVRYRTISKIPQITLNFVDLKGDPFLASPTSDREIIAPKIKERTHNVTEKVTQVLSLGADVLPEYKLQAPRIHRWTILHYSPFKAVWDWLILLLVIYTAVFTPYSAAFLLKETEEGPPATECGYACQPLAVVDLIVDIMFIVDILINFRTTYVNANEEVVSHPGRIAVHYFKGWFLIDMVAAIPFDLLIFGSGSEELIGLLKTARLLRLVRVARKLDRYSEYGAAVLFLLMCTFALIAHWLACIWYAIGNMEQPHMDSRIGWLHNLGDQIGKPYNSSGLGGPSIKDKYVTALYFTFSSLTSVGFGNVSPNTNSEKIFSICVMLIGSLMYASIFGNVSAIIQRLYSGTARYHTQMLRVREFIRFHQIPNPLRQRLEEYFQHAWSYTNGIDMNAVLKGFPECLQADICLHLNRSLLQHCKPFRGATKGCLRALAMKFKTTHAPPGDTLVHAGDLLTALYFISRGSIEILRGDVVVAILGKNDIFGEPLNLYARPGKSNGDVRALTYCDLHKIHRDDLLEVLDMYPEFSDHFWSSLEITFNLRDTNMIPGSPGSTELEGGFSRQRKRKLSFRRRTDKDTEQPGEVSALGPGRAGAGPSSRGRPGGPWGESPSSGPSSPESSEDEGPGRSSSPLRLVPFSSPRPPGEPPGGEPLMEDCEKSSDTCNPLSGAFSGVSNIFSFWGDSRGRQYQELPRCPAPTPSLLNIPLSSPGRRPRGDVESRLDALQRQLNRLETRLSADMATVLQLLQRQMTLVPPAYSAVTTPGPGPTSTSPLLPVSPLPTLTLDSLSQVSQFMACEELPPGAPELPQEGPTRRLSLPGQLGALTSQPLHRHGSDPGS

Compound: CCc1cc(N(C)C)c2c(c1O)C(=O)C1=C(O)[C@]3(O)C(=O)C(C(N)=O)=C(O)[C@@H](N(C)C)[C@@H]3C[C@@H]1C2 [Compound 1]
- Thyroid tissue staining ([1]; at comparable doses to minocycline): little or no thyroid tissue staining
- Adverse effects ([1]; daily oral doses from 15 to 150 mg/kg for up to 4 weeks): Few adverse effects were observed at any dose
- Effects on fetal body weight [2]: only slight effects on fetal body weight
- IC50 ([3]; Sin-1, 37° C., 8 minutes, read-out: IC50, inhibition of oxidation of DHR probe (peroxynitrite-carbonate scavenging)): 11 µM
- Uric Acid Equivalents ([3]; relative to uric acid): 1.13
- Open Field Test - Trial 2, Mean time ([4]; Fmr1 KO mice): 97.100 min
- Open Field Test - Trial 3, Mean time ([4]; Fmr1 KO mice): 72.600 min
- Open Field Test - Trial 2, Mean time ([4]; WT mice): 83.900 min
- Open Field Test - Trial 3, Mean time ([4]; WT mice): 68.300 min
- Protein Synthesis Inhibition (IC50) (bacterial ribosome): >100 µg/mL
- Effects in metabolism (Metabolism): no significant effects
- Effect on clinical course of EAE (onset, maximum disease severity) (MOG peptide-induced EAE): both delayed the onset and inhibited the maximum disease severity more potently than minocycline
- Effects in hERG/ion channel assays (hERG/ion channel): no significant effects
- Marble burying deficit of Fmr1 KO2 mice (Fmr1 KO2 mice): significantly rescued
- Effects in genotoxicity (Genotoxicity): no significant effects
- Cardiovascular safety findings [5]: No treatment-related effects were observed
